Assay results: patent US20260285850A1, “SUBSTITUTED OXAZOLIDINONES AND IMIDAZOLINONES AS HERBICIDES” (FMC CORPORATION, priority 2023, published 2026)

Legend:
Format in all cases: in vivo
[1] = test system: barnyardgrass (Echinochloa crus-galli); test: Test A preemergence soil spray, visual injury rating 0-100; details: 10 days, 0 = no effect, 100 = complete control
How it was run: (§1)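 Compound in a non-phytotoxic, surfactant-containing solvent is applied either as a directed soil spray before seedlings emerge or onto emerged plants 2-10 cm tall; pots hold a loam-sand blend. Plants grow 10 days under greenhouse conditions and are rated by eye against untreated controls (0 no effect, 100 complete control).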

[2] = test system: blackgrass (Alopecurus myosuroides); test: as above; details: 10 days, 0 = no effect, 100 = complete control
How it was run: as §1

[3] = test system: corn (Zea mays); test: as above; details: 10 days, 0 = no effect, 100 = complete control
How it was run: as §1

[4] = test system: green foxtail (Setaria viridis); test: as above; details: 10 days, 0 = no effect, 100 = complete control
How it was run: as §1

[5] = test system: kochia (Bassia scoparia); test: as above; details: 10 days, 0 = no effect, 100 = complete control
How it was run: as §1

[6] = test system: oat, wild (wild oat, Avena fatua); test: as above; details: 10 days, 0 = no effect, 100 = complete control
How it was run: as §1

[7] = test system: palmer (palmer amaranth, palmer pigweed, Amaranthus palmeri); test: as above; details: 10 days, 0 = no effect, 100 = complete control
How it was run: as §1

[8] = test system: ragweed (common ragweed, Ambrosia artemisiifolia); test: as above; details: 10 days, 0 = no effect, 100 = complete control
How it was run: as §1

[9] = test system: ryegrass, Italian (italian ryegrass, Lolium multiflorum); test: as above; details: 10 days, 0 = no effect, 100 = complete control
How it was run: as §1

[10] = test system: soybean (Glycine max); test: as above; details: 10 days, 0 = no effect, 100 = complete control
How it was run: as §1

[11] = test system: wheat (Triticum aestivum); test: as above; details: 10 days, 0 = no effect, 100 = complete control
How it was run: as §1

[12] = test system: barnyardgrass (Echinochloa crus-galli); test: Test A postemergence application, visual injury rating 0-100; details: Postemergence, 10 days, 0 is no effect, 100 is complete control
How it was run: as §1

[13] = test system: blackgrass (Alopecurus myosuroides); test: as above; details: Postemergence, 10 days, 0 is no effect, 100 is complete control
How it was run: as §1

[14] = test system: corn (Zea mays); test: as above; details: Postemergence, 10 days, 0 is no effect, 100 is complete control
How it was run: as §1

[15] = test system: galium (catchweed bedstraw, Galium aparine); test: as above; details: Postemergence, 10 days, 0 is no effect, 100 is complete control
How it was run: as §1

[16] = test system: green foxtail (Setaria viridis); test: as above; details: Postemergence, 10 days, 0 is no effect, 100 is complete control
How it was run: as §1

[17] = test system: horseweed (Erigeron canadensis); test: as above; details: Postemergence, 10 days, 0 is no effect, 100 is complete control
How it was run: as §1

[18] = test system: kochia (Bassia scoparia); test: as above; details: Postemergence, 10 days, 0 is no effect, 100 is complete control
How it was run: as §1

[19] = test system: oat, wild (wild oat, Avena fatua); test: as above; details: Postemergence, 10 days, 0 is no effect, 100 is complete control
How it was run: as §1

[20] = test system: palmer (palmer amaranth, palmer pigweed, Amaranthus palmeri); test: as above; details: Postemergence, 10 days, 0 is no effect, 100 is complete control
How it was run: as §1

[21] = test system: ragweed (common ragweed, Ambrosia artemisiifolia); test: as above; details: Postemergence, 10 days, 0 is no effect, 100 is complete control
How it was run: as §1

[22] = test system: ryegrass, Italian (italian ryegrass, Lolium multiflorum); test: as above; details: Postemergence, 10 days, 0 is no effect, 100 is complete control
How it was run: as §1

[23] = test system: soybean (Glycine max); test: as above; details: Postemergence, 10 days, 0 is no effect, 100 is complete control
How it was run: as §1

[24] = test system: wheat (Triticum aestivum); test: as above; details: Postemergence, 10 days, 0 is no effect, 100 is complete control
How it was run: as §1

[25] = test system: barnyardgrass (Echinochloa crusgalli); test: Test B flooded paddy test, visual plant response rating 0-100; details: 250 g ai/ha, Flood, applied to paddy water, evaluated after 13 days
How it was run: (§2)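 Greenhouse, 13 d. Seedlings at 2-leaf stage, pots flooded to 3 cm, compound delivered into floodwater, water level held constant. Evaluated visually relative to controls.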

[26] = test system: ducksalad (Heteranthera limosa); test: as above; details: 250 g ai/ha, Flood, applied to paddy water, evaluated after 13 days
How it was run: as §2

[27] = test system: rice (Oryza sativa); test: as above; details: 250 g ai/ha, Flood, applied to paddy water, evaluated after 13 days
How it was run: as §2

[28] = test system: sedge, umbrella (small-flower umbrella sedge, Cyperus difformis); test: as above; details: 250 g ai/ha, Flood, applied to paddy water, evaluated after 13 days
How it was run: as §2

SMILES: CNC(=O)C1C=CC(NC(=O)C2(C)CN(c3cc(Cl)cc(Cl)c3)C(=O)O2)C1 (stereo not shown) [Compound 47]
- Barnyardgrass plant response rating (0 to 100 scale) ([1]; 125 g ai/ha): 40
- Barnyardgrass plant response rating (0 to 100 scale) ([1]; 500 g ai/ha): 100
- Blackgrass plant response rating (0 to 100 scale) ([2]; 125 g ai/ha): 10
- Blackgrass plant response rating (0 to 100 scale) ([2]; 500 g ai/ha): 90
- Corn plant response rating (0 to 100 scale) ([3]; 125 g ai/ha): 30
- Corn plant response rating (0 to 100 scale) ([3]; 500 g ai/ha): 70
- Foxtail, Green plant response rating (0 to 100 scale) ([4]; 125 g ai/ha): 30
- Foxtail, Green plant response rating (0 to 100 scale) ([4]; 500 g ai/ha): 100
- Kochia plant response rating (0 to 100 scale) ([5]; 125 g ai/ha): 90
- Kochia plant response rating (0 to 100 scale) ([5]; 500 g ai/ha): 100
- Oat, Wild plant response rating (0 to 100 scale) ([6]; 125 g ai/ha): 90
- Oat, Wild plant response rating (0 to 100 scale) ([6]; 500 g ai/ha): 90
- Amaranth, Palmer plant response rating (0 to 100 scale) ([7]; 125 g ai/ha): 80
- Amaranth, Palmer plant response rating (0 to 100 scale) ([7]; 500 g ai/ha): 100
- Ragweed plant response rating (0 to 100 scale) ([8]; 125 g ai/ha): 40
- Ragweed plant response rating (0 to 100 scale) ([8]; 500 g ai/ha): 60
- Ryegrass, Italian plant response rating (0 to 100 scale) ([9]; 125 g ai/ha): 70
- Ryegrass, Italian plant response rating (0 to 100 scale) ([9]; 500 g ai/ha): 90
- Soybean plant response rating (0 to 100 scale) ([10]; 125 g ai/ha): 10
- Soybean plant response rating (0 to 100 scale) ([10]; 500 g ai/ha): 0
- Wheat plant response rating (0 to 100 scale) ([11]; 125 g ai/ha): 20
- Wheat plant response rating (0 to 100 scale) ([11]; 500 g ai/ha): 80
- Barnyardgrass plant response rating (0 to 100 scale) ([12]; 125 g ai/ha): 0
- Barnyardgrass plant response rating (0 to 100 scale) ([12]; 500 g ai/ha): 80
- Blackgrass plant response rating (0 to 100 scale) ([13]; 125 g ai/ha): 20
- Blackgrass plant response rating (0 to 100 scale) ([13]; 500 g ai/ha): 70
- Corn plant response rating (0 to 100 scale) ([14]; 125 g ai/ha): 80
- Corn plant response rating (0 to 100 scale) ([14]; 500 g ai/ha): 90
- Galium plant response rating (0 to 100 scale) ([15]; 125 g ai/ha): 80
- Galium plant response rating (0 to 100 scale) ([15]; 500 g ai/ha): 80
- Foxtail, Green plant response rating (0 to 100 scale) ([16]; 125 g ai/ha): 20
- Foxtail, Green plant response rating (0 to 100 scale) ([16]; 500 g ai/ha): 90
- Horseweed plant response rating (0 to 100 scale) ([17]; 125 g ai/ha): 50
- Horseweed plant response rating (0 to 100 scale) ([17]; 500 g ai/ha): 40
- Kochia plant response rating (0 to 100 scale) ([18]; 125 g ai/ha): 70
- Kochia plant response rating (0 to 100 scale) ([18]; 500 g ai/ha): 80
- Oat, Wild plant response rating (0 to 100 scale) ([19]; 125 g ai/ha): 20
- Oat, Wild plant response rating (0 to 100 scale) ([19]; 500 g ai/ha): 20
- Amaranth, Palmer / Pigweed, Palmer plant response rating (0 to 100 scale) ([20]; 125 g ai/ha): 80
- Amaranth, Palmer / Pigweed, Palmer plant response rating (0 to 100 scale) ([20]; 500 g ai/ha): 100
- Ragweed plant response rating (0 to 100 scale) ([21]; 125 g ai/ha): 40
- Ragweed plant response rating (0 to 100 scale) ([21]; 500 g ai/ha): 50
- Ryegrass, Italian plant response rating (0 to 100 scale) ([22]; 125 g ai/ha): 30
- Ryegrass, Italian plant response rating (0 to 100 scale) ([22]; 500 g ai/ha): 70
- Soybean plant response rating (0 to 100 scale) ([23]; 125 g ai/ha): 30
- Soybean plant response rating (0 to 100 scale) ([23]; 500 g ai/ha): 50
- Wheat plant response rating (0 to 100 scale) ([24]; 125 g ai/ha): 10
- Wheat plant response rating (0 to 100 scale) ([24]; 500 g ai/ha): 10
- Plant response rating, Barnyardgrass (0 to 100 scale, 0 is no effect and 100 is complete control) [25]: 0
- Plant response rating, Ducksalad (0 to 100 scale, 0 is no effect and 100 is complete control) [26]: 30
- Plant response rating, Rice (0 to 100 scale, 0 is no effect and 100 is complete control) [27]: 0
- Plant response rating, Sedge, Umbrella (0 to 100 scale, 0 is no effect and 100 is complete control) [28]: 0
